Data published in US8916535B2, “Use of 2′,5′-oligoadenylate derivative compounds” (Protea Biopharma N.V., priority 2010, dated 2014).

Key:
wild-type XMRV = test: XMRV replication in chronically infected CD4+ cells derived from XMRV-positive individuals (ELISA of supernatants); format: cell-based; details: purified CD4+ T lymphocytes from XMRV-positive adults; in vitro; compared to untreated cells
Method: Secondly, the activity of 2-5A^N1B is tested on chronically infected cells derived from XMRV-positive individuals. XMRV-positive adults are recruited from the clinic. The antiviral response to 2-5A^N1B in vitro is assessed by ELISA in the supernatants of cultured CD4+ cells.

XMRV = test: XMRV-replication in acutely infected CD4+ T lymphocytes from healthy individuals (ELISA of culture supernatants); format: cell-based; details: freshly isolated CD4+ T cells treated with 10, 100 and 1000 nM then infected with XMRV; 96 h post-infection; compared to untreated controls
Method: First, the activity of 2-5A^N1B on XMRV-replication is tested in CD4^+ T lymphocytes purified from healthy individuals. To determine the effective dose of 2-5A^N1B during acute XMRV infection, freshly isolated CD4^+ T cells are treated with three concentrations of 2-5A^N1B (10, 100 and 1000 nM) and then infected with XMRV. XMRV-replication is assessed in culture supernatants by ELISA.

Substance: N^1-benzyl-3′-deoxyadenylyl-(2′-5′)-3′-deoxyadenylyl-(2′-5′)-3′-deoxyadenylyl-(2′-2″)—N^9-[(2″-hydroxy-ethoxy)-methyl]-adenine [2-5A^N1B]
- replication of wild-type XMRV (wild-type XMRV): significantly inhibits
- XMRV-replication (XMRV): significant decrease
